Here are results for one substance from patent US9351992B2, “Non-anticoagulant polysaccharide compositions” (MOMENTA PHARMACEUTICALS, INC., priority 2007, dated 2016).

Marks after values point to notes of the source that are not given here.

For the experiment, the system named is C170HM2 human colorectal tumor cells. The experiment in a line: Colon cancer metastasis to the liver (orthotopic liver metastasis model). It is filed as in vivo, MF1 nude (nu/nu) athymic mice. On the procedure:
Liver metastasis was initiated by intraperitoneal injection of C170HM2 human colorectal tumor cells into male MF1 nude (nu/nu) athymic mice. 5FU/leucovorin was used as a positive control.
C170HM2 cells were maintained in vitro in RPMI culture medium (Sigma) containing 10% (v/v) heat inactivated fetal bovine serum and 2 mM L-glutamine at 37° C. in 5% CO2 and humidified conditions. Cells from sub-confluent monolayers were harvested with 0.025% EDTA, washed in culture medium and re-suspended in sterile phosphate buffered saline, pH 7.4 (PBS) for in vivo administration. 1.5×10^6 cells in a volume of 1 ml were injected intraperitoneally into 65 mice, and the mice were allocated into treatment groups as below.
Treatment was initiated on day 1 following cell injection and continued until day 35 or until the clinical condition of the animal required termination. One mouse in group 6 was terminated on day 20 due to black tail, bruising, and very pale appearance. Groups and 6 missed one dose on day 5. No adverse affects of the test compounds in mice bearing the tumors were observed.
The study was terminated on day 35, and the tumors in the liver were excised and weighed.

Where [1] appears, read: 25 mg/kg i.v. days 1, 3, 5, 7, calculated in comparison to group 7 (untreated), not group 1.
Where [2] appears, read: 25 mg/kg i.v., compared to the untreated control group (group 7).

Regarding 5FU/leucovorin [5 FU/Leu], the “Mean tumor weight” value (25 mg/kg i.v. cycled on days 1, 3, 5, 7, liver tumors day 35) amounted to 0.037 g. Under setting [1], the “Mean tumor area (% of vehicle)” value is on record as 15.7 % of vehicle and the “Mean tumor weight (% of vehicle)” value is 11.94* % of vehicle. Further, the “Mean tumor area (mm^2)” value (25 mg/kg i.v. days 1, 3, 5, 7, cross-sectional area, day 35) is listed as 13.12 mm^2. For the same substance, under setting [2], the “decrease in tumor cross-sectional area” value amounted to 84% and the “decrease of tumor weight in the liver” value is “approximately 88%”. Also, the “decrease in tumor size” value (25 mg/kg i.v., compared to the vehicle control group (group 1), not significant) is reported as 62%.
